Laboratory results from patent publication US20230210833A1, “USE OF IRAK4 INHIBITOR IN TREATMENT OF ACUTE LUNG INJURY ALI/ARDS” (SHANGHAI LEADINGTAC PHARMACEUTICAL CO., LTD., priority 2020, published 2023).

Key:
Format in all cases: in vivo, Balb/c mice
TNF-α = TNF-α in alveolar lavage fluid of LPS-induced ALI/ARDS mice (Elisa); details: for Inhibition of TNF-α (%): oral single dose 0.5 h before LPS (146 150 mg/kg, 41 75 mg/kg, 450 100 mg/kg, dexamethasone 10 mg/kg), alveolar lavage fluid supernatant 4 hours after LPS
Protocol: (§1) After LPS induced model for 4 hours, all mice were anesthetized and alveolar lavage fluid was collected, and the supernatant was collected by centrifuging alveolar lavage fluid. The levels of TNF-α, IL-6 and IL-1β in the supernatant were detected by enzyme-linked immunosorbent assay (Elisa).

IL-6 = IL-6 in alveolar lavage fluid of LPS-induced ALI/ARDS mice (Elisa); details: for Inhibition of IL-6 (%): oral single dose 0.5 h before LPS (146 150 mg/kg, 41 75 mg/kg, 450 100 mg/kg, dexamethasone 10 mg/kg), alveolar lavage fluid supernatant 4 hours after LPS
Protocol: as §1

IL-1β = IL-1β in alveolar lavage fluid of LPS-induced ALI/ARDS mice (Elisa); details: for Inhibition of IL-1β (%): oral single dose 0.5 h before LPS (146 150 mg/kg, 41 75 mg/kg, 450 100 mg/kg, dexamethasone 10 mg/kg), alveolar lavage fluid supernatant 4 hours after LPS
Protocol: as §1

[1] = system: LPS-induced ALI/ARDS model mice; assay: Cell count of alveolar lavage fluid in LPS-induced ALI/ARDS mice; details: 24 hours after LPS, oral dosing 0.5 h before and 6 hours after LPS
Protocol: (§2) LPS induced model was given again after 6 hours, and the dose was the same as that of the first administration. After 24 hours from LPS induced model, all mice were weighed, the animals used were anesthetized and the alveolar lavage fluid was collected, the lower cell pellets were collected after centrifugation, and the cells were resuspended, fixed with methanol and stained with Wright-Giemsa, and the eosinophils, neutrophils, macrophages and lymphocytes were counted by an optical microscope. The mice were euthanized with excess carbon dioxide. After the maximum blood volume was collected from the heart, the left lung was fixed with neutral formaldehyde and embedded in paraffin, sliced and HE staining, photographed to observe the lung injury and score.

[2] = system: LPS-induced ALI/ARDS model mice; assay: Lung pathology score (HE staining) in LPS-induced ALI/ARDS mice; details: left lung HE staining, 24 hours after LPS; four categories each scored 0 to 4
Protocol: LPS induced model was given again after 6 hours, and the dose was the same as that of the first administration. […] The mice were euthanized with excess carbon dioxide. After the maximum blood volume was collected from the heart, the left lung was fixed with neutral formaldehyde and embedded in paraffin, sliced and HE staining, photographed to observe the lung injury and score.
Lung pathology scoring criteria: (1) alveolar congestion; (2) hemorrhage; (3) neutrophil infiltration into airspace or vascular wall; (4) alveolar wall/thickness formed by hyaline membrane.

[3] = Body weight of LPS-induced ALI/ARDS mice; details: oral dosing 0.5 h before and 6 hours after LPS (146 150 mg/kg, 41 75 mg/kg, 450 100 mg/kg, dexamethasone 10 mg/kg); 24 hours after LPS; Mean±SEM
Protocol: as §2

[4] = after acting for 4 hours, comparison between compounds 146, 450, 41 and model group

| SMILES | Inhibition of TNF-α (%) (TNF-α) | Inhibition of IL-6 (%) (IL-6) | Inhibition of IL-1β (%) (IL-1β) | Eosinophils (*10^4) [1] | Lymphocytes (*10^4) [1] | Macrophages (*10^4) [1] | Neutrophils (*10^4) [1] | Total cell count (*10^4) [1] | Pulmonary pathology score [2] | Weight [3] [g] | TNF-α inhibitory effect (in words) (TNF-α; [4]) | IL-6 inhibitory effect (in words) (IL-6; [4]) | IL-1β inhibitory effect (in words) (IL-1β; [4]) |
| --- | --- | --- | --- | --- | --- | --- | --- | --- | --- | --- | --- | --- | --- |
| Cc1cc(-c2nc(C(=O)Nc3cc4oc(N5CCOCC5)nc4nc3N3CC[C@@H](O)C3)co2)ccn1 [Compound 41, (R)-N-(5-(3-hydroxypyrrolidine-1-yl)-2-morpholinoxazo [4,5-b]pyridine-6-yl)-2-(2-methylpyridine-4-yl) oxazole-4-formamide] | 12.90 | 21.40 | 52.00 | 2.81 *10^4 | 3.71 *10^4 | 89.06 *10^4 | 466.17 *10^4 | 561.75 *10^4 | 4.17 | 19.45 ± 0.71 | – | – | – |
| C[C@@H]1C[C@H]2[C@@H]3CCC4=CC(=O)C=C[C@]4(C)[C@@]3(F)[C@@H](O)C[C@]2(C)[C@@]1(O)C(=O)CO [Dexamethasone, dexamethasone] | 128.70 | 0.00 | 0.00 | 3.17 *10^4 | 3.25 *10^4 | 108.20 *10^4 | 361.63 *10^4 | 476.25 *10^4 | 3.50 | 18.91 ± 0.74 | – | – | – |
| CC[C@@H]1[C@H](F)C(=O)N[C@@H]1COc1nccc2cc(C(N)=O)c(OC)cc12 [Compound 450] | 28.70 | 36.40 | 43.90 | 3.11 *10^4 | 2.74 *10^4 | 74.91 *10^4 | 386.74 *10^4 | 467.50 *10^4 | 4.83 | 18.68 ± 0.4 | significantly lower than that of compound 146 | significantly lower than that of compound 146 | significantly lower than that of compound 146 |
